These results are taken from US20060078535A1, “Anticancer compounds and methods” (The Regents of the University of Michigan, priority 2004, published 2006).

One test relates to keratinocytes. Nature of the test: SU-ECM invasion by keratinocytes. In kind it is cell-based. Particulars: serum-free SU-ECM. From the text:
Since, during wound reepithelialization, keratinocytes migrate through the connective tissue of the provisional matrix to “wall off” portions of the wound, as well as through the adjacent stroma, it is not surprising that they are also stimulated to migrate through the matrix of SU-ECM invasion substrates by the PHSRN (SEQ ID NO: 1) sequence. […] Recruitment of fibroblasts or monocytes/macrophages whose paracrine, regulatory effects on a variety of neighboring cells are required for the early stages of wound healing is contemplated as a highly efficient and effective way to stimulate the cascade of regulatory interactions involved in wound healing because these cells will secrete the active factors or cytokines in the correct temporal sequences and spatial locations to ensure their optimal activities. Because it efficiently induces keratinocyte migration through the extracellular matrix in vitro, the PHSRN (SEQ ID NO: 1) peptide is also likely to stimulate wound reepithelialization directly. The use of the PHSRN (SEQ ID NO: 1) peptide or structurally related molecules according to the present invention is to stimulate the entry of cells such as fibroblasts and monocyte/macrophages into the provisional matrix of a wound, so that the entering cells themselves secrete the factors and cytokines active in inducing or potentiating wound healing. […]

Test [1] concerns DU-145 metastatic prostate cancer cells. Nature of the test: Invasion of fibronectin-depleted Matrigel by DU-145 cells. The test is classed as cell-based, human. Particulars: 0.5 μl/ml peptide added to gelatin-panned Matrigel. How it is done: This example describes a purification approach for removal of plasma fibronectin (and/or cellular fibronectin) from a substrate (Matrigel). In this example, removal was attempted by successive panning on gelatin. Eight wells of 24-well plate were coated with a 2% gelatin solution (the gelatin was obtained from Becton Dickinson Labware, Catalog #11868). The wells were filled with the gelatin solution which had been heated to 50° C. and incubated for 3 minutes. Then the solution was removed and the wells were allowed to air dry. Following drying, the wells were thoroughly rinsed with ddH2O followed by two rinses with PBS. The plates were again allowed to dry; thereafter they were stored at −20° C. until use. Matrigel was thawed on ice and then added to one of the wells of a gelatin-coated plate (between 800 μl and 1 ml of Matrigel was added to a well of a 24-well plate). The plate was placed in a bucket of ice in a […] room on an orbital shaker where the Matrigel was incubated in the well for two hours (although overnight incubation can be used). Following the incubation, the Matrigel was moved from the first well to a second well and then incubated for two hours under the same conditions. This process was repeated until the Matrigel had been incubated on all eight wells of the gelatin-coated plate.
Following the depletion of the Matrigel, it was collected in Eppendorf tubes. […]

For test [2], the system named is SUM-52 PE breast cancer cells. Description: SU-ECM invasion assay, SUM-52 PE breast cancer cells. The test is classed as cell-based, human. Conditions: SUM-52 cells. How it is done: Adult Strongylocentrotus purpuratus sea urchins were obtained from Pacific BioMarine, and their embryos were cultured to the early pluteus stage in artificial sea water at 15° C. SU-ECM were prepared from them by treatment with nonionic detergent and strerilized by dilution in the appropriate media.
Cells were harvested by rinsing in Hanks' balanced salt solution, followed by brief treatment with 0.25% trypsin, 0.02% EDTA, and pelleting and resuspension in the appropriate medium with or without 5% FCS at a density of about 50,000 cells per ml. […]
Invasion assays were coded and scored blindly by microscopic examination under phase contrast at 200- and 400-fold magnification. Each cell contacting an SU-ECM was scored for its position relative to the exterior or interior surfaces. […] The minimum viability of the cells in each assay was always ascertained at the time of assay by determining the fraction of spread, adherent cells on the bottom of each well scored.
An invasion frequency is defined as the fraction of cells in contact with basement membranes which were located in their interiors at the time of assay. […] Invasion frequencies were determined multiple times for each cell type assayed. For each type of cell assayed the mean and standard deviation of the invasion frequencies were calculated. […]

For the substance Pro-His-Ser-Arg-Asn (PHSRN), in the test with keratinocytes, the keratinocyte invasion entry is listed as “stimulate keratinocyte invasion of serum-free SU-ECM”. In addition, in test [1], the “DU-145 invasiveness on depleted Matrigel” value is “sufficient to restore the full DU-145 invasiveness”. In test [2], the “induction of invasion of SU-ECM” value is given as “induced to invade the SU-ECM substrate”.
